# Values of other authors as cited in patent US6127342A, “Method for preventing or treating a lung disease caused by active oxygen and free radical injury” (Teijin Limited, priority 1991, dated 2000).
# System: glutathione peroxidase
# Details: Flohe, et al.; cited from earlier work
smiles,measurement,value
COC(=O)[C@H](CS)NC(=O)CC[C@H](N)C(=O)O,efficiency as substrate of glutathione peroxidase compared with glutathione,20-30%
